In this test the test system is ArBNR3. As to the kind of experiment: Luminescence (GFP-aequorin Ca2+) assay, CHO-K1 cells coexpressing ArBNR3 and Gqs5. The format is cell-based, Asterias rubens. To be noted: ArBNR3, words; up to 10^-5 M. As for the experimental part: Having investigated relationships of eleven A. rubens BN-type receptor candidates (ArBNR1-11) with BN-type, ET-type, and CCHa/EP-type receptors in other taxa, ArBNR1 was identified as the best candidate and therefore this was selected for experimental testing. However, two other receptors (ArBNR2 and ArBNR3) were also tested. The methods employed for functional characterization of A. rubens neuropeptide receptors have been described previously ([57]) and a description of the methods employed in this study is included in SI Appendix, SI Methods. […]
Functional characterization of A. rubens BN-type receptors
Two cDNAs encoding ArBNR1 and ArBNR3 were cloned from A. rubens radial nerve cord cDNA using Q5 polymerase (NEB, Cat. no. M0491S) and PCR with specific primers (SI Appendix, Table S5). To facilitate expression of the cloned receptors, the forward primers were designed to contain a partial Kozak consensus sequence (ACC) before the ATG start codon. Then, PCR products were inserted into the mammalian expression vector pcDNA 3.1(+) (Invitrogen, Cat. no.
V79020) that had been cut in advance with the restriction enzyme EcoRV (NEB, Cat. no. […] Successful ligation and the direction of the insert was determined by restriction enzyme digestion and sequencing (TubeSeq service; Eurofins Genomics). […]
identical to residues 18 - 270 of the protein XP_033631283.1, which was determined from genome […]

With “EPMPSSLALYIANLSP-NH2 [ArBNP65-81, C-terminally amidated 16-residue peptide predicted to be derived from residues 65 to 81 of ArBNP]”, the peptide-induced luminescence result was “did not trigger luminescence”.

As for “NYNRVFGPTY-NH2 [ArBN5-14, C-terminally amidated 10-residue peptide corresponding to the C-terminal region of ArBN]”, the peptide-induced luminescence result is given as “did not trigger luminescence”.
